Data on 7 compounds can be found in patent EP0302626A2, “Insecticidal compounds” (IMPERIAL CHEMICAL INDUSTRIES PLC, priority 1987, dated 1989).

What all share (assay type): in vivo
Test [1] deals with Tetranychus urticae (spider mites - adult). In words: insecticidal mortality test, contact, French bean leaf. The note with it: Tetranychus urticae, 72 h; for mortality at 100 ppm: read-out: grading of mortality, Tua, 100 ppm, 3 days. An outline of the steps: (§1)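 Mortality, assessed 1–3 days post-treatment, is graded A 80-100%, B 50-79%, C <50%. Treatment applied to pests, their host plant or food medium, or both. Preparations at 500, 250 or 100 ppm made from acetone solutions diluted with water containing 0.01% wetting agent.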

The next test has as its system Myzus persicae (aphids). In words: insecticidal mortality test, contact, Chinese Cabbage leaf. As to conditions: 72 h, read-out: grading of mortality, MP. An outline of the steps:
as §1

The next test deals with Nilaparvata lugens. In words: insecticidal mortality test, Nephotettix cincticeps replaced by Nilaparvata lugens. As to conditions: 72 h, read-out: grading of mortality, NC with Nilaparvata lugens. As for the experimental part: The activity of the Product was determined using a variety of insect pests. The Product was used in the form of liquid preparations containing 500, 250 or 100 parts per million (ppm) by weight of the Product. The preparations were made by dissolving the Product in acetone and diluting the solutions with water containing 0.01% by weight of a wetting agent sold under the trade name "LlSSAPOL" NX until the liquid preparations contained the required concentration of the Product. "Lissapol" is a Registered Trade Mark.
The test procedure adopted with regard to each pest was basically the same and comprised supporting a number of the pests on a medium which was usually a host plant or a foodstuff on which the pests feed, and treating either or both the pests and the medium with the preparations. The mortality of the pests was then assessed at periods usually varying from one to three days after the treatment.
The results of the tests are given in Table III for each of the Products, at the rate in parts per million given in the second column as a grading of mortality designated as A, B or C wherein A indicates 80-100% mortality, B indicates 50-79% mortality and C indicates less than 50% mortality.
In Table 111 the pest organism used is designated by a letter code and the pests species, the support medium or food, and the type and duration of test is given in Table II.

In test [2] the test system is Heliothis virescens (tobacco budworm - larvae). In words: insecticidal mortality test, residual, cotton leaf. As to conditions: 72 h, read-out: grading of mortality, HV. An outline of the steps:
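Product dissolved in acetone, diluted in water with 0.01% wetting agent to 500, 250 or 100 ppm. Pests on host plant or food were treated (pests and/or medium), and mortality scored one to three days later. Graded A (80-100%), B (50-79%) or C (<50%) mortality.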

Test [3] deals with Spodoptera exigua (lesser army worm - larvae). Description: insecticidal mortality test, residual, cotton leaf. The note with it: 72 h, read-out: grading of mortality, SP. The procedure, abridged:
as §1

For test [4], the system named is Diabrotica balteata (rootworm larvae). Description: insecticidal mortality test, residual, filter paper/maize seed. The note with it: 72 h, read-out: grading of mortality, DB. An outline of the steps:
as §1

Test [5] concerns Blattella germanica (cockroach nymphs). Description: insecticidal mortality test, residual, plastic pot. The note with it: 72 h, read-out: grading of mortality, BG. The procedure, abridged: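 Mortality grades: A 80–100%, B 50–79%, C <50%, scored usually 1 to 3 days post-treatment. Test liquids held 500, 250 or 100 ppm by weight, prepared from acetone solution diluted into water with 0.01% wetting agent.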

Test [6] relates to Musca domestica (houseflies - adults). Description: insecticidal mortality test, contact, cotton wool/sugar. The note with it: 24 h, read-out: grading of mortality, MD. The procedure, abridged: as §1
In test [7] the test system is Blattella germanica (adult males). In words: Blattella germanica knockdown test. The note with it: tests 1 and 2 are repeats; for % KNOCKDOWN OBSERVED 15 min / % KNOCKDOWN OBSERVED 20 min / pest or weed control at 250 ppm: 250 ppm in kerosene, 1 cm3 sprayed onto 10 adult males; for pest or weed control at 250 ppm / mortality at 250 ppm: Blattella germanica; for pest or weed control at 250 ppm: topical, 10 min, Tetramethrin: mean of 27 observations, read-out: % KNOCKDOWN OBSERVED 10 min; for mortality at 250 ppm: 48 h, 250 ppm spray, insects held at 25°C and 65% relative humidity for 48 hours, read-out: % MORTALITY 48 hrs. As for the experimental part:
The test compound was dissolved in acetone (2 cm³) and the solution diluted to a concentration of 250 ppm with kerosene. 1 cm³ Of this preparation was sprayed onto 10 Blattella germanica (adult males) held in a netted plastic pot in a Burkhard potter Tower. Assessment of knockdown was performed at intervals of 5 minutes up to a total of 20 minutes. On removal from the Burkhard Potter Tower, the insects were held at 25°C and 65% relative humidity for 48 hours, and an assessment of mortality performed. Each test was repeated.
In some tests, additional knockdown assessment was performed at intervals of 1, 2, 3 and 4 minutes, and KT₅₀ and KT₉₀ values determined (the time taken, in minutes, to knockdown 50% and 90% respectively of test insects).

Test [8] deals with Musca domestica (adult females). Description: Musca domestica knockdown test. As to conditions: 1 cm3 of 30 ppm solution in acetone, Kearns and March chamber, 20 adult females, observed over 10 minutes; average of 2 replicates (* single replicate, ** average of 7 tests). As for the experimental part:
1 cm³ Of a 30 ppm solution of the test chemical in acetone was sprayed into a Kearns and March chamber containing 20 Musca domestica (adult females). Knockdown was observed over a period of 10 minutes and KT₅₀ and KT₉₀ values (the time taken for 50% and 90% of the insects to be knocked down) were calculated from the observations. The results given in Table V represent average KT values of 2 replicates except where otherwise stated.

Test [9] has as its system Nephotettix cincticeps (green leaf hopper - nymphs). In words: insecticidal mortality test, contact, rice plant. As to conditions: 72 h, 100 ppm, contact, rice plant, 3 days, read-out: grading of mortality, NC. An outline of the steps: as §1
Setting [10] is: Nilaparvata lugens, in Oryza sativa.
[11] abbreviates: 100 ppm, residual, cotton leaf, 3 days.

Values joined by “and” are separate entries in the source; they are usually repeats but may differ in a detail not shown here. Equal entries are not always repeated. Where two headings read alike, the source gives them in different places.

In general, mortality refers to the share of the test organisms that died. Regarding `CC1(C)C(C=C(Cl)C(F)(F)F)C1C(=O)OCc1c(F)c(F)c(CF)c(F)c1F` (racemic) [Product II, 4-(Fluoromethyl)-2,3,5,6-tetrafluorobenzyl (1RS,cis)-3-(Z-2-chloro-3,3,3-trifluoroprop-1-en-1-yl)-2,2-dimethyl-cyclopropanecarboxylate], the mortality at 100 ppm in [1] is below 50%; in the test with Myzus persicae (aphids) it was 80 to 100%; with Nilaparvata lugens (setting [10]), 80 to 100%; in test [2] (setting [11]), 80 to 100%; in [3], 80 to 100%; in test [4], 80 to 100%. In addition, the mortality at 100 ppm in test [5] and in test [6] was 80 to 100% each time. Also, the “% KNOCKDOWN OBSERVED 15 min” value in [7] was 90% and 100%. The “% KNOCKDOWN OBSERVED 20 min” value in test [7] is reported as 90%. Moreover, the pest or weed control at 250 ppm in test [7] amounted to 60%. The compound further displayed a KT₅₀ in test [8] of 2.7 min. For the same compound, the KT₉₀ in test [8] turned out to be 5.0 min.

Regarding `CC(=O)OCc1c(F)c(F)c(COC(=O)C2C(C=C(Cl)C(F)(F)F)C2(C)C)c(F)c1F` (racemic) [Product VI, 4-(Acetoxymethyl)-2,3,5,6-tetrafluorobenzyl (1RS,cis)-3-(Z-2-chloro-3,3,3-trifluoroprop-1-en-1-yl)-2,2-dimethylcyclopropanecarboxylate], the mortality at 100 ppm in test [1] lay within 50 to 79%; with Myzus persicae (aphids), 80 to 100%; in [9], 80 to 100%; in test [2] (setting [11]), 80 to 100%; in test [3], 80 to 100%; in [4], 80 to 100%. Moreover, the mortality at 100 ppm in test [5] and in test [6] was 80 to 100% each time. The “% KNOCKDOWN OBSERVED 15 min” value in [7] turned out to be 70%. Moreover, in test [7], the “% KNOCKDOWN OBSERVED 20 min” value is listed as 100%. Further, the mortality at 250 ppm in test [7] worked out at 100%. Moreover, the pest or weed control at 250 ppm in test [7] was found to be 30%. In addition, the KT₅₀ in test [8] is 7.0 min. Moreover, the KT₉₀ in test [8] was 7.7* mins.

Turning to `CC1(C)C(C=C(Cl)C(F)(F)F)C1C(=O)OCc1c(F)c(F)c(CN=[N+]=[N-])c(F)c1F` (racemic) [Product X, 4-(Azidomethyl)-2,3,5,6-tetrafluorobenzyl (1RS, cis)-3-(Z-2-chloro-3,3,3-trifluoroprop-1-en-1-yl)-2,2-dimethylcyclopropanecarboxylate], the mortality at 100 ppm (in test [1]; in the test with Myzus persicae (aphids); in test [9]; in test [2] (setting [11]); in [3]; in test [4]) was 80 to 100% in each case. Also, the mortality at 100 ppm in test [5] and in test [6] was 80 to 100% throughout. For the same compound, the “% KNOCKDOWN OBSERVED 15 min” value in test [7] was determined as 100%. The mortality at 250 ppm in test [7] was 100%. For the same compound, in test [7], the pest or weed control at 250 ppm turned out to be 70%. The KT₅₀ in [8] is 5.0* mins. Also, the KT₉₀ in [8] was 9.0* mins.

Take `CC1(C)C(C=C(Cl)C(F)(F)F)C1C(=O)OCc1c(F)c(F)c(CC#N)c(F)c1F` (racemic) [Product XII, 4-(Cyanomethyl)-2,3,5,6-tetrafluorobenzyl (1RS, cis)-3-(Z-2-chloro-3,3,3-trifluoroprop-1-en-1-yl)-2,2-dimethylcyclopropanecarboxylate]: the mortality at 100 ppm in test [1] was 80 to 100%; with Myzus persicae (aphids), below 50%; in [9], 80 to 100%; in [2] (setting [11]), 80 to 100%; in test [3], 80 to 100%; in test [4] it was 80 to 100%. Further, the mortality at 100 ppm in test [5] and in test [6] was 80 to 100% throughout. Further, in test [7], the mortality at 250 ppm amounted to 100%. The pest or weed control at 250 ppm in test [7] was 100%. In addition, the KT₅₀ in test [8] was found to be 6.8 min. In test [8], this compound registered a KT₉₀ of 9.8 min.

For the compound `CC(C)=NNc1c(F)c(F)c(COC(=O)[C@@H]2[C@H](/C=C(\Cl)C(F)(F)F)C2(C)C)c(F)c1F` (relative stereo) [Product XIII, 4-(prop-2-ylidenehydrazino)-2,3,5,6-tetrafluorobenzyl (1RS, cis)-3-(Z-2-chloro-3,3,3-trifluoroprop-1-en-1-yl)-2,2-dimethylcyclopropanecarboxylate], the mortality at 100 ppm in test [1] is below 50%; in the test on Myzus persicae (aphids) it was 50 to 79%; with Nilaparvata lugens (setting [10]), 80 to 100%; in test [2] it was 80 to 100%; in test [4], 80 to 100%; in test [5] it was 80 to 100%. Moreover, the mortality at 100 ppm in test [6] fell in the range of 80 to 100%.

`CC(C)=NNc1c(F)c(F)c(COC(=O)[C@@H]2[C@H](C=C(Cl)Cl)C2(C)C)c(F)c1F` (relative stereo) [Product XV, 4-(prop-2-ylidenehydrazino)-2,3,5,6-tetrafluorobenzyl (1RS, cis)-3-(2,2-dichloroethenyl)-2,2-dimethyl-cyclopropanecarboxylate]: the mortality at 500 ppm (in the test with Myzus persicae (aphids); with Nilaparvata lugens (setting [10]); in test [2]; in test [4]; in [5]; in test [6]) was 80 to 100% throughout.

As to `C#Cc1c(F)c(F)c(COC(=O)C2C(C)(C)C2(C)C)c(F)c1F` [Product XVII, 4-Ethynyl-2,3,5,6-tetrafluorobenzyl-2,2,3,3-tetramethylcyclopropanecarboxylate], the mortality at 500 ppm in [1] (500 ppm, 3 days, read-out: grading of mortality, Tua) is 80 to 100%; in the test on Myzus persicae (aphids) (500 ppm, contact, Chinese Cabbage leaf, 3 days), below 50%; in the test on Nilaparvata lugens (500 ppm, footnote *: Nephotettix cincticeps replaced by Nilaparvata lugens, otherwise as NC test (contact, rice plant, 3 days)), 80 to 100%; in test [2] it was 80 to 100%; in test [3] (500 ppm, residual, cotton leaf, 3 days) it was 80 to 100%; in test [4] (500 ppm, residual, filter paper/maize seed, 3 days), below 50%. Further, the mortality at 500 ppm in [5] (500 ppm, residual, plastic pot, 3 days) lay within 80 to 100%; in test [6] (500 ppm, contact, cotton wool/sugar, 1 day), 80 to 100%. Further, the KT₅₀ in test [8] came to 4.1 min. In [8], this compound returned a KT₉₀ of 7.5 min.
